experiment: Inhibition of bakers yeast alpha-glucosidase by spectrophotometry; parameters: species or system Saccharomyces cerevisiae

IC50	SMILES
35.8 µM	C=CC(C)(C)c1c(O)cc2oc3cc(O)c(O)c(CC=C(C)C)c3c(=O)c2c1O
32 µM	CC(C)=CCc1c2c(c(O)c3c(=O)c4cc(O)c(O)cc4oc13)C(C)(C)C(C)O2 (stereo not drawn)
24.9 µM	C=CC(C)(C)c1c(O)cc(O)c2c(=O)c3cc(O)c4c(c3oc12)C=CC(C)(C)O4
37.7 µM	C=CC(C)(C)c1c(O)cc(O)c2c(=O)c3c(CC=C(C)C)c(O)c(O)cc3oc12 [CUDRATRICUSXANTHONE A]
16.2 µM	C=CC(C)(C)c1c(OC)cc(O)c2c(=O)c3c(CC=C(C)C)c(O)c(O)cc3oc12 [CUDRAXANTHONE D]
52.9 µM	C=CC(C)(C)c1c(O)cc2oc3c(CC=C(C)C)c(O)c(O)cc3c(=O)c2c1O [CUDRAXANTHONE L]
> 100 µM	CC(C)=CCc1c(O)c(O)cc2c(=O)c3c(O)c4c(cc3oc12)OC(C)C4(C)C (stereo not drawn) [CUDRAXANTHONE M]
38.2 µM	C=CC(C)(C)c1c(O)c(CC=C(C)C)c2oc3cc(O)c(O)cc3c(=O)c2c1O [MACLURAXANTHONE B]
